# Measured values: PMC4724314 (European journal of medicinal chemistry, 2015)
# Where a name gives a salt, the structure may show the parent alone.
# Columns and labels:
# IDO1 [1] = molecular target: T1, IDO1 (Homo sapiens, UniProt P14902); test: Recombinant human IDO1 enzyme inhibition assay; type: biochemical; conditions: for ligand efficiency: LE=1.37*pKi/number of heavy atoms; for mode of inhibition: Lineweaver-Burk graphical analysis
# HeLa cells = test: Cell viability; type: cell-based, human; conditions: up to concentrations of 100 μM
# human serum protein = test: Impact of human serum protein binding on inhibitory activity; type: in vitro ADME
# catalase = test: Catalase inhibition; type: biochemical; conditions: catalase IC50 relative to IDO1 IC50
# IDO1 [2] = molecular target: T1, IDO1; test: UV-Vis absorption spectroscopy of inhibitor binding to IDO1; conditions: 500 μM inhibitor; for effect of inhibitor on CO-bound ferrous IDO1: CO as surrogate for O2; for Soret band of deoxy ferrous IDO1 on inhibitor binding: without inhibitor 427 nm
# T1 sequence (P14902 whole entry): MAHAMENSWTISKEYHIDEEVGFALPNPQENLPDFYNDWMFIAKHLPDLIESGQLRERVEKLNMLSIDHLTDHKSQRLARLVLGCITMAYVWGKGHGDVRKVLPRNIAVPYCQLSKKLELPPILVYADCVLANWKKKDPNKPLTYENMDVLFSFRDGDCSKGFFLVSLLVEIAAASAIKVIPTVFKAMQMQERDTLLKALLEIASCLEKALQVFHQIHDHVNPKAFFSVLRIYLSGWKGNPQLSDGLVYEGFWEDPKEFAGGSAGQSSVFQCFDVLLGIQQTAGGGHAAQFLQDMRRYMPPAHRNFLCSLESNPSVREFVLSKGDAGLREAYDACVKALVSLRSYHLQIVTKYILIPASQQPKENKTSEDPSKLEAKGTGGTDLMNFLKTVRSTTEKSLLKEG
# catalase, sequence (P00432 2-527): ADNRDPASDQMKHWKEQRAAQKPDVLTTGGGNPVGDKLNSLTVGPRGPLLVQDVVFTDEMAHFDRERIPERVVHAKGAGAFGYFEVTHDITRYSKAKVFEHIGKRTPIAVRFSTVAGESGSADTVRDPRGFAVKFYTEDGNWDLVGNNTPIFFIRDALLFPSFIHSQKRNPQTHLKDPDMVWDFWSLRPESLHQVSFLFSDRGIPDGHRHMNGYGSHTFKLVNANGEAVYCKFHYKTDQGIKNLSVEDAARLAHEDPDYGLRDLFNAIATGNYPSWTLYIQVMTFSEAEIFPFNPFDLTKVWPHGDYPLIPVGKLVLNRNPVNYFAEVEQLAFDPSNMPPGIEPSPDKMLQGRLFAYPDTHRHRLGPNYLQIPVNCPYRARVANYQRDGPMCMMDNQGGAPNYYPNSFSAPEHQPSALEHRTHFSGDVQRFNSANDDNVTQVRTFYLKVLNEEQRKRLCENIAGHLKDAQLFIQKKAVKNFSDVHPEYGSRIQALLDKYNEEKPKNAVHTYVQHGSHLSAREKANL
SMILES,IC50 (IDO1 [1]),cell viability (cytotoxicity) (HeLa cells),impact of human serum protein binding on inhibitory activity (human serum protein),Catalase Fold (catalase),reversibility of IDO1 inhibition (IDO1 [1]),ligand efficiency (IDO1 [1]),mode of inhibition (IDO1 [1]),effect of inhibitor on CO-bound ferrous IDO1 (IDO1 [2]),Soret band of deoxy ferrous IDO1 on inhibitor binding (IDO1 [2])
"NOCCc1ccccc1 [Compound 5, O-Phenethylhydroxylamine hydrochloride]",20 µM,,,,,,,,
"Cl.NOCc1cccc(Cl)c1 [Compound 9, O-(3-Chlorobenzyl)hydroxylamine hydrochloride]",,good cell viability,relatively unaffected,> 320 fold,reversible,0.93,uncompetitive,,
"NOCc1ccccc1 [Lead, O-benzylhydroxylamine]",,,,,,,,inhibitor binding prevents CO binding to the heme iron,419–421 nm
"COc1ccc(OC)c(CON)c1.Cl [Compound 40, O-(2,5-Dimethoxybenzyl)hydroxylamine hydrochloride]",,,,,,,,inhibitor binding partially prevents CO binding to the heme iron,419–421 nm
"Cl.NOCc1ccc(I)cc1 [Compound 8, 4-(Iodobenzyl)hydroxylamine hydrochloride]",,good cell viability,substantial reduction in inhibitory activity,> 300 fold,reversible,0.93,uncompetitive,inhibitor binding partially prevents CO binding to the heme iron,419–421 nm
"NNc1ccccc1 [Ph-NH-NH2, phenylhydrazine]",,,,,did not see any signs of irreversible inhibition,,,,
